Results published in patent US10537567B2, “Kinase inhibitors for treatment of disease” (BioAxone BioSciences, Inc., priority 2017, dated 2020).
Entries after “also recorded” stand apart in the source; their conditions may differ.

Tests used:
ROCK1 = ROCK1 (Homo sapiens, UniProt Q13464); test: DiscoverX kinome screen; assay type: binding; set-up: are incubated with DNA-tagged kinase domains tagged; DNA tag; purchased DiscoverX; conditions: 10,000 nM API
Description: (§1) A 468-target kinome screen and a safety screen were carried out to examine the off-target profiles of different kinase inhibitors (DiscoverX, Freemont, Calif.). The kinome screen is a binding assay where API interference of kinase domain/substrate binding is assessed as percent of control. Less than 10% binding (or >90% binding inhibition) is most biologically relevant and considered as a ‘hit’. BA-2017 only had 7 off-target hits compared to BA-1049 and Netarsudil, which both had 11 hits (Table 1) (Studirvant et al. 2016 Bioorg Med Chem Lett. 26(10):2475-2480). […] Published data for Netarsudil were with 200 times less API. […] The NET activity likely helps to decrease IOP but might increase hyperemia, while the SERT activity might have long-term safety consequences (Costagliola et al. 2004 CNS drugs 18(8): p. 475-484).
(§2) In the kinome screen BA-2017 had fewer off-target hits (Table 1) than BA-1049. […] An interesting hit from the kinome screen was on Abl (Table 1), an oncogene that also regulates many cellular activities, including vascular leakage.

ROCK2 = ROCK2 (Homo sapiens, UniProt O75116); test: DiscoverX kinome screen; assay type: binding; set-up: are incubated with DNA-tagged kinase domains tagged; DNA tag; purchased DiscoverX; conditions: 10,000 nM API
Description: as §1, §2

cellular ROCK activity = test: pMLC2 immunoblot dose-response in human trabecular meshwork cells; assay type: cell-based; conditions: serum starved TM cells, 1 hour treatment
Description: To quantify the inhibitory effect of the compounds the TM cells were serum starved and treated for 1 hour with the indicated compound concentration and then lysed and extracted for SDS-PAGE and immunoblotting for phosphorylated myosin light chain kinase 2 (pMLC2), which is a biomarker for cellular ROCK activity.

human TM cells = test: Fibronectin immunoblot in TGFβ-stimulated TM cells; assay type: cell-based; conditions: 2.5 ng/ml TGFβ, 0-100 μM, 24 hours
PKC Δ = target: T1, PKC Δ (Homo sapiens, UniProt Q05655); test: DiscoverX kinome screen; assay type: binding; conditions: 10,000 nM API
T1 construct: are incubated with DNA-tagged kinase domains tagged; DNA tag; purchased DiscoverX
Description: as §1, §2

PKC ε = target: T2, PKC ε (Homo sapiens, UniProt Q02156); test: DiscoverX kinome screen; assay type: binding; conditions: 10,000 nM API
T2 construct: are incubated with DNA-tagged kinase domains tagged; DNA tag; purchased DiscoverX
Description: as §1, §2

GRK1 = target: T3, GRK1 (Homo sapiens, UniProt Q15835); test: DiscoverX kinome screen; assay type: binding
T3 construct: are incubated with DNA-tagged kinase domains tagged; DNA tag; purchased DiscoverX
T3 sequence (Q15835 190-455 limits assumed): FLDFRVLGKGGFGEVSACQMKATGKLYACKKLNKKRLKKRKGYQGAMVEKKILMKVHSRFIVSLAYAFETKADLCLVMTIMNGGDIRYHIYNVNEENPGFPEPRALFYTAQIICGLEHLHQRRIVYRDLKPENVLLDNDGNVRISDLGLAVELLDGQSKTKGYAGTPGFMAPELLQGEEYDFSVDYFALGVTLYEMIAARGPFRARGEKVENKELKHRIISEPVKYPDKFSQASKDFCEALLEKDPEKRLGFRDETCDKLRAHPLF
Description: as §1, §2

468-target kinome screen = test: DiscoverX kinome screen, off-target hits; assay type: binding, human; conditions: 10,000 nM API
Description: as §1, §2

[1] = system: GPCRs, transporters, ion channels, nuclear receptors, non-kinase enzymes; test: Safety screen of 88 targets; set-up: species or system human; conditions: agonistic or antagonistic
Source text: These targets include GPCRs, transporters, ion channels, nuclear receptors, non-kinase enzymes.

[2] = Total body irradiation (TBI) mouse model, GI histopathology; assay type: in vivo, mice; conditions: dosing for three days, 3 days after irradiation
Description: At day 0, TBI is carried out at a lethal dose of 8.0 Gy (Harlan mice) or 9.0 Gy (Coats mice)-doses that are expected to cause death in about 90% of animals within 30 days. […] Mice are monitored for survival up to day 30. During this period, mice were deprived of all supportive care, including antibiotics, to increase the stringency of the survival protocol. Survival is assessed with Kaplan-Meir curves. […] Mice are euthanized at 3 days and GI tissue is paraffin-embedded, sectioned and immunolabeled with rabbit anti-mouse leucine-rich-repeat-containing G-protein-coupled receptor 5 (LGR5), a GI stem cell marker that is expressed upon GI injury.

retinal ganglion cells = test: RGC dendritic arbor in Hb9-GFP glaucoma mice; assay type: in vivo; conditions: 1 month, weekly microbead injection, daily eye drops
Source text: To evaluate changes in the RGC dendritic arbor in glaucoma and the ability of the API to prevent neuronal loss in the retina, mice are used which carry an enhanced GFP (eGFP) driven by the Hb9 promoter (B6.Cg-Tg(Hlxb9-GFP)1Tmj/J; Jackson Labs), which directs GFP expression to the on-off direction-sensitive ganglion cell (ooDSGC) sub-population of retinal ganglion cells (Trenholm et al. 2011 Neuron. 71(4): p. 683-694). These mice allow visualization of non-overlapping RGCs for unambiguous identification of individual dendritic arbors. Treated and control glaucoma eyes are examined, as well as normal eyes 1 month after weekly microbead injection and daily eye drops. The eyes are fixed by perfusion and prepared for retinal whole mounts, and the labeled ganglion cells visualized by fluorescence microscopy. Images are imported into ImageJ and analyzed for dendritic field area (using the polygon tool to join points along the perimeter of the field) and subjected to Sholl analysis using the plugin for Image J to be able to characterize dendritic branching and complexity of normal, glaucoma/treated and glaucoma/control RGCs.

T2 sequence (Q02156 408-668 limits assumed): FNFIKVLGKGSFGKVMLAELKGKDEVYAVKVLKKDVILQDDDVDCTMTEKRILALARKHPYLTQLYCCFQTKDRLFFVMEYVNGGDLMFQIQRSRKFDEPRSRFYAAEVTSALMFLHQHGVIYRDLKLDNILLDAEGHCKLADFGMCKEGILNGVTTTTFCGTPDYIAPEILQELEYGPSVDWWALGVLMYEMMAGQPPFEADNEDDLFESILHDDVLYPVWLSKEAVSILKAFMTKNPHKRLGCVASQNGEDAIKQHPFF
T1 sequence (Q05655 349-603 limits assumed, stated change not applied): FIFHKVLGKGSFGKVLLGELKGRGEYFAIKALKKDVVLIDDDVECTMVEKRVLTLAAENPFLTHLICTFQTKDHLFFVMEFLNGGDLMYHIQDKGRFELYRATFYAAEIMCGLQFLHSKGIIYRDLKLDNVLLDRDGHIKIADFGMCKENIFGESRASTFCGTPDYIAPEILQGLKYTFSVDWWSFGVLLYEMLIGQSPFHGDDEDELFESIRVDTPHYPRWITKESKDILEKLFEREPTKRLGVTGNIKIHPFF
Chain of ROCK1 (Q13464 76-338 limits assumed): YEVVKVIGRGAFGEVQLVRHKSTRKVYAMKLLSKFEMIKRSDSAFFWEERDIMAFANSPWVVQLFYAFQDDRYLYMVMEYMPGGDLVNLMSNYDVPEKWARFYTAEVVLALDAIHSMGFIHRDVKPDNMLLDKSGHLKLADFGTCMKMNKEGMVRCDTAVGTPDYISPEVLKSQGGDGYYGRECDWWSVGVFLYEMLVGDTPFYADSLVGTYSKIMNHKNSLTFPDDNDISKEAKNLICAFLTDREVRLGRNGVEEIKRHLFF
Chain of ROCK2 (O75116 92-354 limits assumed): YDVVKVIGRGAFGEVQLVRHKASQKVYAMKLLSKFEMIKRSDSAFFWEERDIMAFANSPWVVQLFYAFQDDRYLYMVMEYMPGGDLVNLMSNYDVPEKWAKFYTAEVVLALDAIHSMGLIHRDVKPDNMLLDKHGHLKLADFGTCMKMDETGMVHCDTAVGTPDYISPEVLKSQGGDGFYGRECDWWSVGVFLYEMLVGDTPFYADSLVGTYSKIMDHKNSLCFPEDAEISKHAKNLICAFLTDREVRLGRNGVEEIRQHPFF

## C[C@H](N)C1CCN(S(=O)(=O)c2cccc3cnccc23)CC1 [BA-1076]
ROCK1
  Kinome Screen % inhibition ROCK1: >99%
ROCK2
  Kinome Screen % inhibition ROCK2: >99%
Cellular ROCK activity
  Reversal of ROCK activation (pMLC2): showed potency to reverse ROCK activation
Human TM cells
  Fibronectin levels: Fibronectin levels decreased dose-dependently
PKC Δ
  Kinome Screen % inhibition PKC Δ: <70%
PKC ε
  Kinome Screen % inhibition PKC ε: 86%
GRK1
  Off-target activity on GRK1: does not have this off-target effect; also recorded: neither BA-1076 nor its metabolite, BA-2057, exhibits off-target inhibition of GRK1
468-target kinome screen
  Kinome Screen Other (other off-target kinase): (ABL)
468-target kinome screen; hit = less than 10% binding (>90% binding inhibition)
  # Hits <10% binding: 7
[1]
  Off-target hits in safety screen: no significant off target hits were detected
[2]
  Radiation-induced jejunal damage (LGR5 expression): mitigated radiation-induced jejunal damage
Retinal ganglion cells
  Retinal ganglion cell dendritic arbors: protect and/or restore retinal ganglion cell dendritic arbors

## C[C@H](N)C1CCN(S(=O)(=O)c2cccc3c(=O)[nH]ccc23)CC1 [BA-2057]
ROCK1
  Kinome Screen % inhibition ROCK1: >98%
ROCK2
  Kinome Screen % inhibition ROCK2: >96%
Cellular ROCK activity
  Reversal of ROCK activation (pMLC2): more potent than the parent BA-1076
Human TM cells
  Fibronectin levels: more potent in decreasing fibronectin deposition than BA-1076
PKC Δ
  Kinome Screen % inhibition PKC Δ: <70%
PKC ε
  Kinome Screen % inhibition PKC ε: <70%
GRK1
  Off-target activity on GRK1: neither BA-1076 nor its metabolite, BA-2057, exhibits off-target inhibition of GRK1
468-target kinome screen
  Kinome Screen Other (other off-target kinase): none
[1]
  Off-target hits in safety screen: no significant off target hits were detected
[2]
  Radiation-induced jejunal damage (LGR5 expression): mitigated radiation-induced jejunal damage
Retinal ganglion cells
  Retinal ganglion cell dendritic arbors: protect and/or restore retinal ganglion cell dendritic arbors
